This note sets out measurements from ChEMBL document CHEMBL1201862, “PubChem BioAssay data set” (2004).

The structures appear in SMILES notation. The source made the active and inactive calls.

In test [1] the target is T1, Short transient receptor potential channel 4 (Mus musculus, UniProt Q9QUQ5).
T1 sequence (Q9QUQ5 whole entry): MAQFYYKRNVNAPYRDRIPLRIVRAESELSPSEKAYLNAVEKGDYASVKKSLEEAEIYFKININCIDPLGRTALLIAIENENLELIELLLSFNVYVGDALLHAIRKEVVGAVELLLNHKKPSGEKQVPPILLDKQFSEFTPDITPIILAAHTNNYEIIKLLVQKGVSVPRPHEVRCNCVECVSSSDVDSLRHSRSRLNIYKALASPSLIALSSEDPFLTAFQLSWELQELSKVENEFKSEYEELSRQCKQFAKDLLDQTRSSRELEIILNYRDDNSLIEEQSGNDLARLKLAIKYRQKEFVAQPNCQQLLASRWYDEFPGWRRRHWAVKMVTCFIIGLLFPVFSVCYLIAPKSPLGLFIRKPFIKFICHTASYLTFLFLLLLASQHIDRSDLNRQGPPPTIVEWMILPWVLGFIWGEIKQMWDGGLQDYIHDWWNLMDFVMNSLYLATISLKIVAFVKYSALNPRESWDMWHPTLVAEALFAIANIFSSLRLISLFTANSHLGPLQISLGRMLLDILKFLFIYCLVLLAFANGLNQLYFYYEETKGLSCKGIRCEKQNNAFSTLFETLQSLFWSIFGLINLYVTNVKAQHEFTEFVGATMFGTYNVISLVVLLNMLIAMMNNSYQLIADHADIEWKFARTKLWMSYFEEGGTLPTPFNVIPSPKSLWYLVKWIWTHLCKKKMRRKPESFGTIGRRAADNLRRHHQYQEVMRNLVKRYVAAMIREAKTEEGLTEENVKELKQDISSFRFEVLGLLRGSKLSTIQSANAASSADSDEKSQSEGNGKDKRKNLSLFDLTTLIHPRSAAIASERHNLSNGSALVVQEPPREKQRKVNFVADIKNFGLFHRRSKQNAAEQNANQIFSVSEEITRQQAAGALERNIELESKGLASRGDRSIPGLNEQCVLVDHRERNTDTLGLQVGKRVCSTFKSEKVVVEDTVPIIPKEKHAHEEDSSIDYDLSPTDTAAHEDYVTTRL
Nature of the test: TRPC4 positive allosteric modulators, dose response, cell-based, HEK293 TRPC4/mu-opioid, Fluo-4 calcium, EC20 DAMGO (AID 434941).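 Note: HEK293 cells coexpressing TRPC4 and mu opioid receptor stimulated by EC20 DAMGO.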 The test is classed as functional.

Test [2] deals with T2, Polyadenylate-binding protein 1 (Homo sapiens, UniProt P11940). Nature of the test: PABP1 MLLE–PAM2 binding inhibitor potency, dose response, biochemical, fluorescence polarization, FITC-PAM2 peptide (AID 602259). The test is classed as functional. The note with it: read-out: IC50_Mean.
The target in test [3] is Mitochondrial peptide methionine sulfoxide reductase (Bos taurus, UniProt P54149). The experiment in a line: Absorbance-based biochemical high throughput dose response assay for activators of Methionine sulfoxide reductase A (MsrA). The test is classed as functional.
Test [4] addresses T3, Mannose-6-phosphate isomerase (Homo sapiens, UniProt P34949).
T3 sequence (P34949 whole entry): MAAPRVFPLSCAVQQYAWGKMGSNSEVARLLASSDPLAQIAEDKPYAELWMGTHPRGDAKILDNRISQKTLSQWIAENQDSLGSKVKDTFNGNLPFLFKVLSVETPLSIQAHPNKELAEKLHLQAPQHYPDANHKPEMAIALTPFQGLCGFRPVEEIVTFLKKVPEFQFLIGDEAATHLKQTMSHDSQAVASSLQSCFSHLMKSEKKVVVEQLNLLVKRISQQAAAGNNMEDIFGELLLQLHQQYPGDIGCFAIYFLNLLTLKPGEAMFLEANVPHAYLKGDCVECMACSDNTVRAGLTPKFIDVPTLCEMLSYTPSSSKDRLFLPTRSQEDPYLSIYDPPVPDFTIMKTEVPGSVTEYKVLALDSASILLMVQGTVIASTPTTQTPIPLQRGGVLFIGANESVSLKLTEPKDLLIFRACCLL
Nature of the test: PMI enzyme inhibitors, confirmation, biochemical, fluorescence intensity (AID 1535).

Test [5] concerns the target T2, Polyadenylate-binding protein 1. Nature of the test: PABP1 MLLE–PAM2 interaction inhibitors, dose response, miRNA deadenylation inhibitor project, biochemical, fluorescence polarization, Cy5-PAM2 peptide, secondary (AID 602260). The class given is functional. Particulars: read-out: IC50_Mean. For orientation: Polarisation of emitted light reports the rotation of a fluorescent probe.

The target in test [6] is T4, Alkaline phosphatase, tissue-nonspecific isozyme (Homo sapiens, UniProt P05186).
T4 sequence (P05186 whole entry): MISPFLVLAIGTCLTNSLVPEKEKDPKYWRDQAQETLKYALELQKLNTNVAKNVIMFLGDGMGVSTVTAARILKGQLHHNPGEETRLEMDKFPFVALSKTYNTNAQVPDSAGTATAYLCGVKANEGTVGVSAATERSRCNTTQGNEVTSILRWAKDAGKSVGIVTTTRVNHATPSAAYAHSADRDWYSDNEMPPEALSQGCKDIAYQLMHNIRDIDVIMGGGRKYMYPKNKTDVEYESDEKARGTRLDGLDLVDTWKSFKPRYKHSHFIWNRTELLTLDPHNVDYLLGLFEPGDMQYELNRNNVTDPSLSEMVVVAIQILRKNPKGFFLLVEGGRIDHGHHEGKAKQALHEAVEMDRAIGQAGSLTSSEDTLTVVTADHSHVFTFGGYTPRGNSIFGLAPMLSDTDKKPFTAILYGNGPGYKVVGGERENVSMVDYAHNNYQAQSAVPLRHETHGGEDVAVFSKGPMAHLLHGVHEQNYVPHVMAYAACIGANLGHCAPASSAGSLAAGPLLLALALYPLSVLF
The experiment in a line: human TNAP enzyme inhibitors, SAR follow-up, biochemical, luminescent, dose response (AID 1056).

A further test has as its target T5, Phosphomannomutase 2 (Homo sapiens, UniProt O15305).
T5 sequence (O15305 whole entry): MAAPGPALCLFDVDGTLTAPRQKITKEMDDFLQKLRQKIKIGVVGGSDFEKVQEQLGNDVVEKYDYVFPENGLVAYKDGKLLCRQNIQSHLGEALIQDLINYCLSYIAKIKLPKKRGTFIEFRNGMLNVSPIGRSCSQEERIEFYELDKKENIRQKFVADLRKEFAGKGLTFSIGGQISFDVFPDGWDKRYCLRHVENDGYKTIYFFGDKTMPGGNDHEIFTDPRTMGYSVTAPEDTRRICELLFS
Nature of the test: Counter screen SAR assay for PMM2 inhibitors via a fluorescence intensity assay. [Related pubchem assays (depositor defined):AID1545, AID1574]. Background: Counterscreens check selectivity or assay interference.

The next test has as its target Beta Lactamase (Pseudomonas aeruginosa, UniProt Q932Y6). Nature of the test: beta-lactamase reporter inhibitor potency, dose response, artefact control for NOD2-RIPK2 interaction inhibitor project, BLA reporter cells, FRET fluorescence (AID 651552). The class given is functional, cell-based.
In test [7] the target is DNA dC->dU-editing enzyme APOBEC-3A (Homo sapiens, UniProt P31941). Nature of the test: APOBEC3A DNA deaminase inhibitors, dose response, biochemical (AID 504722). The class given is functional.
The nature of test [8]: HeLa cell cytotoxicity, dose response, cytotoxicity control for MgcRacGAP inhibitor project (AID 624300). The class given is functional.
Test [9] has as its target Phosphoethanolamine/phosphocholine phosphatase (Homo sapiens, UniProt Q8TCT1). Nature of the test: SAR assay for compounds that inhibit PHOSPHO1. [Related pubchem assays (depositor defined):AID1545, AID1565, AID1574].
Test [10] addresses T6, Rac GTPase-activating protein 1 (Homo sapiens, UniProt Q9H0H5).
T6 sequence (Q9H0H5 whole entry): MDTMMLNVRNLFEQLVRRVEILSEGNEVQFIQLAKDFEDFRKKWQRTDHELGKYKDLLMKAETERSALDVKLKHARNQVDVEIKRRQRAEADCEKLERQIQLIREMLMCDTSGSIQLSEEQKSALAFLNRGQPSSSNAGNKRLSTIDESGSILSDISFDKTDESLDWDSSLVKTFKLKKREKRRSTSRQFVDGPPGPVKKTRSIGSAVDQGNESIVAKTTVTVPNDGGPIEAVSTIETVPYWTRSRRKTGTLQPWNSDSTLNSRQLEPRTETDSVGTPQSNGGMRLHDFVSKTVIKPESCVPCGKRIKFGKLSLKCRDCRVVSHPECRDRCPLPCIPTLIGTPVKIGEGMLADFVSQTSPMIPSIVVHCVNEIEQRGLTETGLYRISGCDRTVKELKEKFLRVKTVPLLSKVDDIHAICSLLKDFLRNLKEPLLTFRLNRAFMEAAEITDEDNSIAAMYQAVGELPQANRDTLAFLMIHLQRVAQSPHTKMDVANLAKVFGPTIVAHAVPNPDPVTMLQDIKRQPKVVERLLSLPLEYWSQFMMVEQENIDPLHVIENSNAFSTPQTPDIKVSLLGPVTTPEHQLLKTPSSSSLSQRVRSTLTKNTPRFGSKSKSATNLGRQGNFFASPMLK
Nature of the test: MgcRacGAP GTPase-activating activity inhibitors, confirmation, biochemical, ADP Hunter fluorescence, primary and confirmatory (AID 624330). The test is classed as functional.

A short description of test [11]: Fluorescence-based cell-based high throughput dose response assay for inhibitors of the interaction of nucleotide-binding oligomerization domain containing 2 (NOD2) and the receptor-interacting serine-threonine kinase 2 (RIPK2). The note with it: Homo sapiens. The test is classed as functional.
For test [12], the target named is DNA dC->dU-editing enzyme APOBEC-3G (Homo sapiens, UniProt Q9HC16). Nature of the test: Dose Response confirmation of small molecule APOBEC3G DNA Deaminase Inhibitors via a fluorescence-based single-stranded DNA deaminase assay. [Related pubchem assays (depositor defined):AID493012, AID493028]. The class given is functional.
Test [13] addresses T4, Alkaline phosphatase, tissue-nonspecific isozyme. Nature of the test: TNAP enzyme inhibition by screening hits, dose response, selectivity assay for mouse IAP inhibitor project, biochemical, human TNAP, uHTS hits (AID 488906). The class given is functional.
For test [14], the target named is Intestinal-type alkaline phosphatase (Homo sapiens, UniProt P09923). Nature of the test: activation of human intestinal alkaline phosphatase – biochemical, dose response (AID 488873). The test is classed as functional.
In test [15] the target is Intestinal-type alkaline phosphatase (Mus musculus, UniProt P24822). The experiment in a line: PubChem AID 488785. The test is classed as functional.
In test [16] the target is T2, Polyadenylate-binding protein 1. The experiment in a line: PABP inhibition in translation initiation, SAR follow-up (AID 435018). The test is classed as functional.
The target in test [17] is T7, Long-chain-fatty-acid--AMP ligase FadD28 (Mycobacterium tuberculosis, UniProt P9WQ59).
T7 sequence (P9WQ59 whole entry): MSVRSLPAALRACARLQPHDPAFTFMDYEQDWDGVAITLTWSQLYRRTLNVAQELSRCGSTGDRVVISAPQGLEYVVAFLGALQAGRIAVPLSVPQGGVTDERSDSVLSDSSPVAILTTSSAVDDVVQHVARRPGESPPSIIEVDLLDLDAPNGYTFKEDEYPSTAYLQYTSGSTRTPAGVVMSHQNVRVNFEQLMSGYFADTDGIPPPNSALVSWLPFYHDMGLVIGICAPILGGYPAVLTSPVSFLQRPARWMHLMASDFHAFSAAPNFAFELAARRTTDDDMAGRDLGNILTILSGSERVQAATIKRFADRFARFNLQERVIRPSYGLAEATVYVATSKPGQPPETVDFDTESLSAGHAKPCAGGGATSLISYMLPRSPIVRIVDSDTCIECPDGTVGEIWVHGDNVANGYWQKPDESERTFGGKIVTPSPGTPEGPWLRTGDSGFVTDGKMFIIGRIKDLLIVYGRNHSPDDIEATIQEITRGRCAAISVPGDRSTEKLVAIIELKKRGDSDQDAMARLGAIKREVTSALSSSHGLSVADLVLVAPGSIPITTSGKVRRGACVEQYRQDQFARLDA
Nature of the test: Fluorescence polarization aasay to screen for inhibitors that compete for the binding of FadD28 to a bisubstrate Measured in Biochemical System Using Plate Reader - 2147-01_Inhibitor_Dose_CherryPick_Activity. The test is classed as functional, Mycobacterium tuberculosis H37Rv.

The target in test [18] is T8, Carboxy-terminal domain RNA polymerase II polypeptide A small phosphatase 1 (Homo sapiens, UniProt Q9GZU7).
T8 sequence (Q9GZU7 whole entry): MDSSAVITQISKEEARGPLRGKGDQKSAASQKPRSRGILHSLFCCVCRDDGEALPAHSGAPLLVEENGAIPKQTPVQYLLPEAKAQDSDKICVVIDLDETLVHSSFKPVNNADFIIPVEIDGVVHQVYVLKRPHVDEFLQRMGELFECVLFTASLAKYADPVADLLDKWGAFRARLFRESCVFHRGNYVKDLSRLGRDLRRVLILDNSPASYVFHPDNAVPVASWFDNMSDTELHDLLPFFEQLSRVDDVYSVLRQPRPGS
The experiment in a line: inhibitors of CTDSP1, concentration-response testing, biochemical assay, absorbance-based, actives from ultra-high-throughput screening (AID 540297). The class given is functional.

In test [19] the target is Eukaryotic translation initiation factor 4H (Homo sapiens, UniProt Q15056). Nature of the test: eIF4H inhibition in translation initiation, SAR follow-up (AID 435011). The test is classed as functional.

T2 sequence (P11940 whole entry): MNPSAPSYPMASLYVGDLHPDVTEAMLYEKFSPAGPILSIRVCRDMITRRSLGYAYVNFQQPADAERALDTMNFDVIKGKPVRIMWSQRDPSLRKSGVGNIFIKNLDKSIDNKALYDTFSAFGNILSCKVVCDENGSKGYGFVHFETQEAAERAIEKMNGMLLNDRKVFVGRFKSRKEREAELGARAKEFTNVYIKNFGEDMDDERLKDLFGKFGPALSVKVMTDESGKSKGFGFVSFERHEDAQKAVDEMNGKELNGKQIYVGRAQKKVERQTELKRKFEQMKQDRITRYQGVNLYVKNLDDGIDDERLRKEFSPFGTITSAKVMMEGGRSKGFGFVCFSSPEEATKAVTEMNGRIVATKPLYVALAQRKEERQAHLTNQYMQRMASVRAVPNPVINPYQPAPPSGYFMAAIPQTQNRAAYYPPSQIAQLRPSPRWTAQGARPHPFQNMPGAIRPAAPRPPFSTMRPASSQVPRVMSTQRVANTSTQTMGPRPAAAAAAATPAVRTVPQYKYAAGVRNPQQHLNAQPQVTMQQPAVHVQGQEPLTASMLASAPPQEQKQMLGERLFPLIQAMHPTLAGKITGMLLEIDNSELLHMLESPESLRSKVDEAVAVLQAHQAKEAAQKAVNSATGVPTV
Chain of Phosphoethanolamine/phosphocholine phosphatase (Q8TCT1 whole entry): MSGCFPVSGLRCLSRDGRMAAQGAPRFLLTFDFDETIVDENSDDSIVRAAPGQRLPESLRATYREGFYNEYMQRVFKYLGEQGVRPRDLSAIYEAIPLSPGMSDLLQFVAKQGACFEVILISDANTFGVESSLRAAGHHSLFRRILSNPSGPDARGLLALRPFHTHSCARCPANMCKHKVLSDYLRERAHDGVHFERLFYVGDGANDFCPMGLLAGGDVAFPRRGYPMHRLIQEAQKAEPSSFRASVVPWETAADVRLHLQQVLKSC
Chain of DNA dC->dU-editing enzyme APOBEC-3G (Q9HC16 whole entry): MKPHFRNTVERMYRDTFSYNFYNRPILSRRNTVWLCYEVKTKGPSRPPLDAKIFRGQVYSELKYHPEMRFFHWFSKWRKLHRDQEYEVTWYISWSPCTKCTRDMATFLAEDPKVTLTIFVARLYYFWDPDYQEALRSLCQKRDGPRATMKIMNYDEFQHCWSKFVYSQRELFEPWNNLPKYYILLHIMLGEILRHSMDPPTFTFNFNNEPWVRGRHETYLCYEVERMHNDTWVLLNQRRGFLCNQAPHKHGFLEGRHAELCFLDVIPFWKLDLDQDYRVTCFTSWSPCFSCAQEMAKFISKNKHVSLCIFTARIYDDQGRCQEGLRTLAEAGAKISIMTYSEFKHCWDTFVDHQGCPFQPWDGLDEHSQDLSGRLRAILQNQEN
Chain of Intestinal-type alkaline phosphatase (Homo sapiens, UniProt P09923) (P09923 whole entry): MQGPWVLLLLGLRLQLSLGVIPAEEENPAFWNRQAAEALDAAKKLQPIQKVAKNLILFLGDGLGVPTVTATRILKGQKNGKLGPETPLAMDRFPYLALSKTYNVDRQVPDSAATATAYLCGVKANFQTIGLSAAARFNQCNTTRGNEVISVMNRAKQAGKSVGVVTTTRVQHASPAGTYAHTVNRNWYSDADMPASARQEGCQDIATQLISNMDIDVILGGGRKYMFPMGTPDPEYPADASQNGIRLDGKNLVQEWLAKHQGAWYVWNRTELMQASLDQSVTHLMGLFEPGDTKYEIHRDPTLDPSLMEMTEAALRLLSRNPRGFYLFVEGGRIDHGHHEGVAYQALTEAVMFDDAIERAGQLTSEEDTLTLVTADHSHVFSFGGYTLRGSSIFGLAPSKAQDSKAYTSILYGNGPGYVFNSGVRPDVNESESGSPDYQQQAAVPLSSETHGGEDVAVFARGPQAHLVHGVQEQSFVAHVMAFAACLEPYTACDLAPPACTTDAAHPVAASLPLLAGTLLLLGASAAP
Chain of Mitochondrial peptide methionine sulfoxide reductase (P54149 whole entry): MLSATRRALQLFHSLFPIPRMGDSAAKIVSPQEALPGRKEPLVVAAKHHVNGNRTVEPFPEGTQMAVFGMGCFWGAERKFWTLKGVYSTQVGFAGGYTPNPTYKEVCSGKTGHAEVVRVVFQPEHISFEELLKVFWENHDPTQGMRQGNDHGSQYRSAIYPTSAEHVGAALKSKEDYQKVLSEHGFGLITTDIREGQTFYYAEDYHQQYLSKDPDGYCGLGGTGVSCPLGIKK
Chain of Intestinal-type alkaline phosphatase (Mus musculus, UniProt P24822) (P24822 whole entry): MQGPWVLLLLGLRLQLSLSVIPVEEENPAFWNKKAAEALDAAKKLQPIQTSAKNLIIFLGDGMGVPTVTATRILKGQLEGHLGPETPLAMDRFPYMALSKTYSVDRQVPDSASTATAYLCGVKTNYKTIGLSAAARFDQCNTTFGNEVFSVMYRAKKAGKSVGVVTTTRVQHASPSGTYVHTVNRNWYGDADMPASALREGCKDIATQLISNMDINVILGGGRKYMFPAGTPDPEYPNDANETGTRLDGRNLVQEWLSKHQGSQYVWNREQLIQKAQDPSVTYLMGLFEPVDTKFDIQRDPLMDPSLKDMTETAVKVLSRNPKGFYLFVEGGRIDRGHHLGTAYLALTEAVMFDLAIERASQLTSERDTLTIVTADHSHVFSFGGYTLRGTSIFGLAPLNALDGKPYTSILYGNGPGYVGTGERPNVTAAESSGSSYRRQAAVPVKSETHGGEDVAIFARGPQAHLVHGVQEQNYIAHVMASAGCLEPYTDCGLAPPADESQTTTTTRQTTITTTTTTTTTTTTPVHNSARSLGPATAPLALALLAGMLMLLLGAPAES
Chain of Beta Lactamase (Q932Y6 whole entry): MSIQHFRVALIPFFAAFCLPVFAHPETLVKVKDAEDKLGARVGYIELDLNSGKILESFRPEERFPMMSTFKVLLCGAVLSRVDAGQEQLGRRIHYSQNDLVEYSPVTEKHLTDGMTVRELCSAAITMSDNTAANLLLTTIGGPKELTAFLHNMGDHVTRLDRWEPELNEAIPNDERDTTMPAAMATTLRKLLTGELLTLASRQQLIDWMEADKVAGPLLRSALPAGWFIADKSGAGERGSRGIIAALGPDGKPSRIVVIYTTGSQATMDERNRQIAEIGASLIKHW
Chain of DNA dC->dU-editing enzyme APOBEC-3A (P31941 whole entry): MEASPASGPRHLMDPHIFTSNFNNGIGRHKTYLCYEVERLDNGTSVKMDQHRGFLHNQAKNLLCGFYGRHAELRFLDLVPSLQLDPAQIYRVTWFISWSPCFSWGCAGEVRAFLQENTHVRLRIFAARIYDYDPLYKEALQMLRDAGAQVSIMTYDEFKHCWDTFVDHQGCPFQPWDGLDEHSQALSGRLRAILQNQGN

As to `CC1=C(C(=O)NCc2ccccc2)C(c2cc(Br)cc(Br)c2OC(C)C)NC(=O)N1` (stereo unspecified), the EC50 (as a rule, the concentration that produces a half-maximal response) in [1] is 4.22 µM (active).

For `O=c1c2ccccc2sn1-c1ccc(F)cc1`, the IC50 in [2] is > 66 µM (inactive); in [4], 1.49 µM (active); in [5], > 66 µM (inactive); in test [6], > 100 µM (inactive); at Phosphomannomutase 2, 18.1 µM (active); on Beta Lactamase, 29.5 µM (inactive). The IC50 in [7] was > 100 µM (inactive); in test [9], 4.85 µM (inactive); in test [10], 39.3 µM (active); in [11] it was 5.1 µM (active); in [12], 12.4 µM (active). In addition, the EC50 in test [3] is 98.5 µM (inactive). The CC50 (commonly the concentration giving 50% cytotoxicity) in [8] was 77.3 µM (active).

Consider `CC1(C(=O)NNC(=O)c2ccc(=O)oc2)CC1Br` (stereo unspecified), for which the IC50 in test [13] was > 100 µM (inactive); in [15], 11 µM (active). In addition, the EC50 in test [14] was > 100 µM (inactive).

Regarding `Cc1cccc(NC(=O)CN2C(=O)N/C(=C\c3ccccc3OCc3ccc(C(=O)O)cc3)C2=O)c1`, the IC50 in [16] is 77.6 µM (active); in test [18], 6.07 µM (active); in test [19], 17.5 µM (active). Moreover, the AC50 (in general, the midpoint of the concentration-response curve, whichever way the signal moves) in test [17] is 9.77 µM (active).
